Measurements as given in the RepoRT retention time repository (doi:10.1016/j.jchromb.2020.122105).

Assays:
Settings in all cases: stereoisomer not certain
[1] = RP, Waters CORTECS T3, 100 × 2.1 mm, 2.7 µm, 0.3 mL/min, estimated dead time 0.73 min; A: water + 0.1% formic acid, pH 3; B: methanol + 0.1% formic acid, pH 3; gradient (min/%B) 0/0 5/0 25/100 30/100 30.1/0 35/0
[2] = RP, Waters CORTECS T3, 100 × 2.1 mm, 2.7 µm, 0.2 mL/min, estimated dead time 1.1 min; A: water + 0.1% formic acid, pH 3; B: methanol + 0.1% formic acid, pH 3; gradient (min/%B) 0/0 1/0 6/5 30/100 35/100 35.1/0 40/0
[3] = RP, Waters CORTECS T3, 100 × 2.1 mm, 2.7 µm, 0.3 mL/min, estimated dead time 0.73 min; A: water + 0.1% formic acid, pH 3; B: methanol + 0.1% formic acid, pH 3; gradient (min/%B) 0/0 1/0 6/5 30/100 35/100 35.1/0 40/0
[4] = RP, Waters CORTECS T3, 100 × 2.1 mm, 2.7 µm, 0.2 mL/min, estimated dead time 1.1 min; A: water + 0.1% formic acid, pH 3; B: methanol + 0.1% formic acid, pH 3; gradient (min/%B) 0/5 5/5 25/95 25.1/100 35/100 35.1/5 45/5
[5] = RP, Waters CORTECS T3, 100 × 2.1 mm, 2.7 µm, 0.15 mL/min, estimated dead time 1.5 min; A: water + 0.1% formic acid, pH 3; B: methanol + 0.1% formic acid, pH 3; gradient (min/%B) 0/5 5/5 25/95 25.1/100 35/100 35.1/5 45/5
[6] = RP, Waters ACQUITY UPLC BEH C18, 100 × 2.1 mm, 1.7 µm, 0.2 mL/min, estimated dead time 1.1 min; A: water + 0.1% formic acid, pH 3; B: methanol + 0.1% formic acid, pH 3; gradient (min/%B) 0/5 5/5 25/100 30/100 30.1/5 35/5
[7] = RP, Waters CORTECS T3, 100 × 2.1 mm, 2.7 µm, 0.25 mL/min, estimated dead time 0.88 min; A: water + 0.1% formic acid, pH 3; B: methanol + 0.1% formic acid, pH 3; gradient (min/%B) 0/5 5/5 25/95 25.1/100 35/100 35.1/5 45/5
[8] = RP, Waters ACQUITY UPLC BEH C18, 100 × 2.1 mm, 1.7 µm, 0.1 mL/min, estimated dead time 2.2 min; A: water + 0.1% formic acid, pH 3; B: methanol + 0.1% formic acid, pH 3; gradient (min/%B) 0/5 5/5 25/95 25.1/100 35/100 35.1/5 45/5
[9] = RP, Waters ACQUITY UPLC BEH C18, 100 × 2.1 mm, 1.7 µm, 0.2 mL/min, estimated dead time 1.1 min; A: water + 0.025% formic acid + 20 mM ammonium acetate + 0.055% ammonium hydroxide, pH 7; B: methanol; gradient (min/%B) 0/5 5/5 25/100 30/100 30.1/5 35/5
[10] = HILIC, Merck SeQuant ZIC-HILIC, 150 × 2.1 mm, 5 µm, 0.75 mL/min, estimated dead time 0.44 min; A: water + 10 mM ammonium formate, pH 6; B: 5% water + 95% acetonitrile + 10 mM ammonium formate, pH 6; gradient (min/%B) 0/95 5/95 20/57 25/57 30/95 40/95
[11] = HILIC, Merck SeQuant ZIC-HILIC, 150 × 2.1 mm, 5 µm, 0.75 mL/min, estimated dead time 0.44 min; A: water + 0.1% acetic acid + 10 mM ammonium acetate, pH 4; B: 5% water + 95% acetonitrile + 0.1% acetic acid + 10 mM ammonium acetate, pH 4; gradient (min/%B) 0/95 5/95 20/57 25/57 30/95 40/95
[12] = HILIC, Waters XBridge BEH Amide, 100 × 2.1 mm, 2.5 µm, 0.5 mL/min, estimated dead time 0.44 min; A: water + 0.1% acetic acid + 10 mM ammonium acetate, pH 4; B: 5% water + 95% acetonitrile + 0.1% acetic acid + 10 mM ammonium acetate, pH 4; gradient (min/%B) 0/95 5/95 20/57 25/57 30/95 40/95
[13] = HILIC, Thermo Scientific Accucore HILIC, 100 × 2.1 mm, 2.6 µm, 0.5 mL/min, estimated dead time 0.44 min; A: water + 0.1% formic acid + 10 mM ammonium formate, pH 3; B: 5% water + 95% acetonitrile + 0.1% formic acid + 10 mM ammonium formate, pH 3; gradient (min/%B) 0/95 5/95 20/57 25/57 30/95 40/95
[14] = RP, Waters CORTECS T3, 100 × 2.1 mm, 2.7 µm, 0.3 mL/min, estimated dead time 0.73 min; A: water + 0.1% formic acid, pH 3; B: methanol + 0.1% formic acid, pH 3; gradient (min/%B) 0/5 5/5 25/100 30/100 30.1/5 35/5
[15] = RP, Waters CORTECS T3, 100 × 2.1 mm, 2.7 µm, 0.1 mL/min, estimated dead time 2.2 min; A: water + 0.1% formic acid, pH 3; B: methanol + 0.1% formic acid, pH 3; gradient (min/%B) 0/5 5/5 25/95 25.1/100 35/100 35.1/5 45/5
[16] = RP, Waters CORTECS T3, 100 × 2.1 mm, 2.7 µm, 0.3 mL/min, estimated dead time 0.73 min; A: water + 0.1% formic acid, pH 3; B: methanol + 0.1% formic acid, pH 3; gradient (min/%B) 0/5 5/5 25/95 25.1/100 35/100 35.1/5 45/5
[17] = RP, Waters ACQUITY UPLC BEH C18, 100 × 2.1 mm, 1.7 µm, 0.1 mL/min, estimated dead time 2.2 min; A: water + 0.1% formic acid, pH 3; B: methanol + 0.1% formic acid, pH 3; gradient (min/%B) 0/5 5/5 25/100 30/100 30.1/5 35/5
[18] = RP, Waters ACQUITY UPLC BEH C18, 100 × 2.1 mm, 1.7 µm, 0.1 mL/min, estimated dead time 2.2 min; A: water + 0.1% formic acid, pH 3; B: methanol + 0.1% formic acid, pH 3; gradient (min/%B) 0/5 5/5 25/95 25.1/100 35/100 35.1/5 45/5; remark: listed apart in the source
[19] = as above; remark: listed apart in the source
[20] = RP, Waters CORTECS T3, 100 × 2.1 mm, 2.7 µm, 0.3 mL/min, estimated dead time 0.73 min; A: water + 0.1% formic acid, pH 3; B: methanol + 0.1% formic acid, pH 3; gradient (min/%B) 0/0 5/0 25/100 30/100 30.1/0 35/0; remark: listed apart in the source
[21] = RP, Waters CORTECS T3, 100 × 2.1 mm, 2.7 µm, 0.2 mL/min, estimated dead time 1.1 min; A: water + 0.1% formic acid, pH 3; B: methanol + 0.1% formic acid, pH 3; gradient (min/%B) 0/0 1/0 6/5 30/100 35/100 35.1/0 40/0; remark: listed apart in the source
[22] = RP, Waters CORTECS T3, 100 × 2.1 mm, 2.7 µm, 0.1 mL/min, estimated dead time 2.2 min; A: water + 0.1% formic acid, pH 3; B: methanol + 0.1% formic acid, pH 3; gradient (min/%B) 0/0 1/0 6/5 30/100 35/100 35.1/0 40/0
[23] = RP, Waters CORTECS T3, 100 × 2.1 mm, 2.7 µm, 0.15 mL/min, estimated dead time 1.5 min; A: water + 0.1% formic acid, pH 3; B: methanol + 0.1% formic acid, pH 3; gradient (min/%B) 0/0 1/0 6/5 30/100 35/100 35.1/0 40/0
[24] = RP, Waters CORTECS T3, 100 × 2.1 mm, 2.7 µm, 0.3 mL/min, estimated dead time 0.73 min; A: water + 0.1% formic acid, pH 3; B: methanol + 0.1% formic acid, pH 3; gradient (min/%B) 0/0 1/0 6/5 30/100 35/100 35.1/0 40/0; remark: listed apart in the source
[25] = RP, Waters CORTECS T3, 100 × 2.1 mm, 2.7 µm, 0.25 mL/min, estimated dead time 0.88 min; A: water + 0.1% formic acid, pH 3; B: methanol + 0.1% formic acid, pH 3; gradient (min/%B) 0/0 1/0 6/5 30/100 35/100 35.1/0 40/0
[26] = RP, Waters ACQUITY UPLC BEH C18, 100 × 2.1 mm, 1.7 µm, 0.1 mL/min, estimated dead time 2.2 min; A: water + 0.045% formic acid + 0.11% ammonium hydroxide, pH 7; B: methanol; gradient (min/%B) 0/5 5/5 25/95 25.1/100 35/100 35.1/5 45/5

Row | SMILES | LC retention time [1] [min] | LC retention time [2] [min] | LC retention time [3] [min] | LC retention time [4] [min] | LC retention time [5] [min] | LC retention time [6] [min] | LC retention time [7] [min] | LC retention time [8] [min] | LC retention time [9] [min] | LC retention time [10] [min] | LC retention time [11] [min] | LC retention time [12] [min] | LC retention time [13] [min] | LC retention time [14] [min] | LC retention time [15] [min] | LC retention time [16] [min] | LC retention time [17] [min] | LC retention time [18] [min] | LC retention time [19] [min] | further results
1 | O=C([O-])CCc1ccccc1O [3-(2-HYDROXYPHENYL)PROPANOATE] | 13.3 | 15.9 | 14.2 | 19.6 | 15.5 | 14.4 | 13.2 | 18.3 | 6.28 | 1.85 | 2.27 | 1.75 | 0.87 | – | – | – | – | – | – | –
2 | O=c1[nH]c(=O)c2[nH]c(=O)[nH]c2[nH]1 [URATE] | 0.93 | 1.38 | 0.92 | 2.72 | 1.78 | 1.38 | 1.08 | 2.7 | 1.36 | 12.3 | 11.6 | – | 8.77 | 0.93 | 2.66 | 0.9 | 2.74 | 2.66 | 2.72 | –
3 | O=C(O)c1ccc2ccccc2c1[O-] [1-HYDROXY-2-NAPHTHOATE] | 19.1 | 23.3 | 21.7 | 26.8 | 21.9 | 21.1 | 19.9 | 25.1 | 14.1 | 1.33 | 1.27 | 1.05 | 0.82 | – | – | – | – | – | – | –
4 | Cc1ncc(CO)c(C(=O)O)c1O [4-PYRIDOXATE] | 4.79 | 6.16 | 4.57 | 10.4 | 4.64 | 3.4 | 2.84 | 6.57 | 3.81 | 1.42 | 1.41 | 1.28 | 1.15 | – | – | – | – | – | – | –
5 | N[C@@H](Cc1cc(I)c(O)c(I)c1)C(=O)O [3,5-DIIODO-L-TYROSINE] | – | – | – | – | – | – | – | – | – | – | – | – | 9.05 | 10.9 | 15.8 | 11.1 | 15.8 | 16.1 | 16.1 | LC retention time [20]: 12 min; LC retention time [21]: 14.1 min; LC retention time [22]: 12.5 min; LC retention time [23]: 15.4 min; LC retention time [24]: 12.6 min; LC retention time [25]: 13.3 min; LC retention time [26]: 10.8 min
